Assay results published in patent US20180325781A1, “FORMULATIONS FOR CONTROLLED RELEASE OF BUPIVACAINE” (Research Triangle Institute, priority 2017, published 2018).
Counter-ions that a name gives are not always drawn.

Columns and labels:
[1] = diffusion/release of free (unencapsulated) BP through hemostat matrix, dialysis method; type: physicochemical; details: 1 mg free BP-HCl in 50 or 100 mg Gelfoam or Avitene; 1xPBS pH 7.2, 37° C.; over 24 hours
Procedure: FIG. 5 is a graphical representation of the release of unencapsulated BP from matrix material. 1 mg of free BP—HCl in 0.9 wt/vol % NaCl was combined with either Gelfoam® or Avitene™ (at either 50 mg or 100 mg of matrix) and monitored for release through the matrix over time. The samples were placed in dialysis tubing and submerged in 1×PBS (pH=7.2) at 37° C.
To test the diffusion of free BP (i.e., not encapsulated in microparticles) through the hemostat, the material (i.e., free BP mixed with hemostat) was submerged in physiological media and the released BP measured over time.
In vitro release studies were performed using a dialysis method. […]
UHPLC analysis of released BP was performed on a Waters (Milford, Mass.) ACQUITY UHPLC system equipped with a PDA detector set to 205 nm to quantify BP. […]
The acid form of BP was chromatographically separated on a Waters ACQUITY BEH C18 column (1.7 μm, 2.1×50 mm) by isocratic elution with 70% phosphate buffer/30% ACN at a flow rate of 0.60 mL/min. […] Calibration standards were analyzed and the peaks corresponding to BP were integrated, plotted against the concentration, and the calibration curve was calculated by linear least-squares regression without weighting. […]

[2] = single injection; cited from earlier work

Row | SMILES | release of free BP from the hemostat [1] | complete elimination [2] | time to maximum plasma drug concentration [2]
1 | CCCCN1CCCCC1C(=O)Nc1c(C)cccc1C (stereo not drawn) [free BP, bupivacaine hydrochloride monohydrate] | majority of free BP was released | – | –
2 | CCCCN1CCCCC1C(=O)Nc1c(C)cccc1C (stereo not drawn) [bupivacaine] | – | 6 to 8 h | 30 to 45 min
